Results published in ChEMBL document CHEMBL1156593, “Alkamides from the fruits of Piper longum and Piper nigrum displaying potent cell adhesion inhibition” (Bioorg Med Chem Lett, 2008).
Calls of active or inactive are those of the source. The rule behind the calls is not given here.

How the values were obtained:
THP-1 = assay: Cytotoxicity against human THP1 cells assessed as cell viability at 3.13 to 25.00 ug/mL by MTT assay; format: cell-based
[1] = target: Intercellular adhesion molecule 1 (Homo sapiens) (UniProt P05362); assay: Inhibition of sICAM1/LFA1 interaction-mediated human THP1 cell adhesion at 25 ug/mL after 1 hr by ELISA; conditions: THP-1
[2] = target: Intercellular adhesion molecule 1 (Homo sapiens) (UniProt P05362); assay: Inhibition of sICAM1/LFA1 interaction-mediated human THP1 cell adhesion at 6.25 ug/mL after 1 hr by ELISA; format: cell-based; conditions: THP-1
Mus musculus = species on record: Mus musculus; assay: Antiinflammatory activity in mouse; format: functional, organism-based
[3] = target: Intercellular adhesion molecule 1 (Homo sapiens) (UniProt P05362); assay: Inhibition of sICAM1/LFA1 interaction-mediated human THP1 cell adhesion at 12.50 ug/mL after 1 hr by ELISA; format: cell-based; conditions: THP-1
[4] = target: Intercellular adhesion molecule 1 (Homo sapiens) (UniProt P05362); assay: Inhibition of sICAM1/LFA1 interaction-mediated human THP1 cell adhesion at 3.13 ug/mL after 1 hr by ELISA; format: cell-based; conditions: THP-1

Chain of Intercellular adhesion molecule 1 (Homo sapiens) (P05362 whole entry): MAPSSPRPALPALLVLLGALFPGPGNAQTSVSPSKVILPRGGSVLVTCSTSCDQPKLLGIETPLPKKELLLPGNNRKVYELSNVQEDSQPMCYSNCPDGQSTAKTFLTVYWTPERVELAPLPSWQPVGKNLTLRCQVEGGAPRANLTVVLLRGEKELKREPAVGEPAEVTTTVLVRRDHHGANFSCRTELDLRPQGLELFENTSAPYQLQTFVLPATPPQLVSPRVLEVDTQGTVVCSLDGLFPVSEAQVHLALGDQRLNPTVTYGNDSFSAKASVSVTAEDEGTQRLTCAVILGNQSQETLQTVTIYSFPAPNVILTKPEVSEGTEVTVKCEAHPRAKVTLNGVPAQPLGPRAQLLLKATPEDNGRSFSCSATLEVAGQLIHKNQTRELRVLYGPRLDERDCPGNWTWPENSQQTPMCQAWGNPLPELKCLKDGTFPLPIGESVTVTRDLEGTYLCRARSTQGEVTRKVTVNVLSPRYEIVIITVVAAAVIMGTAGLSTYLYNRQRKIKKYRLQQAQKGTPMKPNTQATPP

| Structure (SMILES) | Activity (THP-1) | inhibition [1] [%] | inhibition [2] [%] | Activity (Mus musculus) | inhibition [3] [%] | Activity [4] | Activity [1] | inhibition [4] [%] |
| --- | --- | --- | --- | --- | --- | --- | --- | --- |
| O=C(/C=C/C=C\CC/C=C/c1ccc2c(c1)OCO2)N1CCCCC1 | Non-toxic | 92.1 | 13.1 | Active | 58.4 | inactive | – | – |
| CC[C@H](C)C(=O)O[C@H]1C[C@@H](C)C=C2C=C[C@H](C)[C@H](CC[C@@H]3C[C@@H](O)CC(=O)O3)[C@H]21 | – | – | 37.7 | – | 61.4 | inactive | inactive | – |
| O=C(/C=C/C=C/CC/C=C/c1ccc2c(c1)OCO2)N1CCCCC1 [DEHYDROPIPERNOLINE] | Non-toxic | 73.4 | 52.5 | Active | 57.7 | – | – | 30.1 |
| CC(C)CNC(=O)/C=C/C=C/CCCCCC/C=C/c1ccc2c(c1)OCO2 [GUINEENSINE] | Non-toxic | 36.8 | 14.9 | Active | 31.7 | inactive | – | – |
| CCCCC/C=C/C=C/C(=O)NCC(C)C [PELLITORIN] | Non-toxic | 80.6 | 16.5 | Active | 46.4 | – | – | 11.3 |
| CC(C)CNC(=O)/C=C/CCCCCC/C=C/c1ccc2c(c1)OCO2 [PIPERCHABAMIDE D] | Non-toxic | 42.6 | 20.9 | Active | 26.9 | – | – | 15.6 |
| O=C(/C=C/CCCC/C=C/c1ccc2c(c1)OCO2)N1CCCCC1 [PIPERNONALINE] | Non-toxic | 93.8 | 36.8 | Active | 70.2 | – | – | 12.5 |
| O=C(CCCCCC/C=C/c1ccc2c(c1)OCO2)N1CCCCC1 [PIPERROLEIN B] | Non-toxic | 67.6 | 28.5 | Active | 46.5 | – | – | 16.2 |
| CC(C)CNC(=O)/C=C/CCCC/C=C/c1ccc2c(c1)OCO2 [RETROFRACTAMIDE C] | Non-toxic | 36 | 29.9 | Active | 35.9 | inactive | – | – |
